Measurements as given in the PolyMetriX glass transition set.
± gives the standard deviation of the reports.

SMILES	glass transition temperature [°C]
*CCCCCCCCCCCCNC(=O)CCCCCCCCCCCCC(=O)N* (repeat unit)	49.00
*C(=O)c1ccc2c(c1)C(=O)N(c1ccc(-c3cc(C(C)(C)C)c(Oc4ccc(N5C(=O)c6ccc(*)cc6C5=O)cc4C(F)(F)F)c(C(C)(C)C)c3)cc1)C2=O (repeat unit)	362.00
*O[Si](*)(C)CCc1ccc(O)cc1 (repeat unit)	39.00
*C(=O)Nc1ccc(C2(c3ccc(NC(=O)c4ccc5c(c4)C(=O)N(c4cccc(N6C(=O)c7ccc(*)cc7C6=O)c4)C5=O)cc3)c3ccccc3-c3ccccc32)cc1 (repeat unit)	209.00
*CC(CCCCCC)C(CCCCCC)COC(=O)c1ccc(C(=O)O*)cc1 (repeat unit)	-15.50
*c1cc(C)c(/N=C/c2ccc(OCc3ccccc3COc3ccc(/C=N/c4cc(C)c(N5C(=O)c6ccc7c8ccc9c%10c(ccc(c%11ccc(c6c7%11)C5=O)c%108)C(=O)N(*)C9=O)cc4C)cc3)cc2)cc1C (repeat unit)	128.00
*c1ccc(*)s1 (repeat unit)	152.17 ± 89
*C(=O)c1ccc2c(c1)C(=O)N(c1ccc(Oc3ccc(C(=O)c4ccc(Oc5ccc(C(=O)c6ccc(Oc7ccc(N8C(=O)c9ccc(*)cc9C8=O)cc7)cc6)cc5)cc4)cc3)cc1)C2=O (repeat unit)	215.00
*CCOCCOCCOC(=O)C1CCC(C(=O)O*)CC1 (repeat unit)	-25.00
*c1ccc(Oc2ccc(Oc3ccc(N4C(=O)c5ccc(Oc6c(C)cc(C(C)(C)c7cc(C)c(Oc8ccc9c(c8)C(=O)N(*)C9=O)c(C)c7)cc6C)cc5C4=O)cc3)c(C(C)(C)C)c2)cc1 (repeat unit)	244.00
*CC(*)(C)C(=O)OCCCCCCCCOc1ccc(C(=O)Oc2ccc(C(=O)/C=C/c3c(C)c4ccccc4n3C)cc2)cc1 (repeat unit)	75.00
*c1ccc2c(c1)C(=O)N(c1cccc(C(=O)Nc3ccc(C(c4ccc(NC(=O)c5cccc(N6C(=O)c7ccc(C(*)(C(F)(F)F)C(F)(F)F)cc7C6=O)c5C)cc4)(C(F)(F)F)C(F)(F)F)cc3)c1C)C2=O (repeat unit)	250.00
*C(=O)OCCN(CCOC(=O)c1ccc2c(c1)C(=O)N(c1c(C)cc(Cc3cc(C)c(N4C(=O)c5ccc(*)cc5C4=O)c(C)c3)cc1C)C2=O)c1ccc(/N=N/c2ccc([N+](=O)[O-])cc2)cc1 (repeat unit)	179.00
*Oc1c(C)cc(-c2cc(C)c(OC(=O)CCCCC(*)=O)c(C)c2)cc1C (repeat unit)	108.00
*CC(*)CCCC (repeat unit)	-50.00
*CCCCCCOC(=O)c1cccc(C(=O)O*)c1 (repeat unit)	5.50
*c1ccc(Oc2ccc(C(=O)c3cccc(C(=O)c4ccc(Oc5ccc(-c6nc(-c7ccc(-c8nc(*)c(-c9ccccc9)[nH]8)cc7)[nH]c6-c6ccccc6)cc5)cc4)c3)cc2)cc1 (repeat unit)	270.00
*/C(OC)=C(\OC)c1ccc(*)s1 (repeat unit)	91.00
*CCOC(=O)O* (repeat unit) [Poly(ethylene carbonate)]	10.92 ± 8.4
*CCCCCCCCCCOC(=O)CCCCCCCCC(=O)O* (repeat unit)	-54.00
*CCCOC(=O)CCC(=O)O* (repeat unit)	-34.70
*Cc1ccc(COP(=O)(/N=N/c2ccc(-c3ccc(/N=N/P(=O)(O*)OC)cc3)cc2)OC)cc1 (repeat unit)	48.00
*CC(=O)Nc1ccc(Oc2ccc(NC(=O)COc3ccc4ccccc4c3Sc3c(O*)ccc4ccccc34)cc2)cc1 (repeat unit)	245.00
*c1ccc(Oc2cccc(Oc3ccc(N4C(=O)c5ccc(Oc6cc7ccccc7cc6Oc6ccc7c(c6)C(=O)N(*)C7=O)cc5C4=O)cc3)c2)cc1 (repeat unit)	208.00

Other lines, results leading:

glass transition temperature [°C]	SMILES
140.00	*CC(O)COc1ccc(C(C)(C)c2ccc(OCC(O)COc3ccc(S(=O)(=O)c4ccc(O*)cc4)cc3)cc2)cc1 (repeat unit)
17.00	*NC(CCC(=O)OCc1ccccc1)C(*)=O (repeat unit)
145.00	*Oc1ccc(NC(=O)c2cccc(C(=O)Nc3ccc(Oc4ccc(C(=O)c5ccc(*)cc5)cc4)cc3)c2)cc1 (repeat unit)
381.50	*c1ccc(-c2cc(C(C)(C)C)c(Oc3ccc(N4C(=O)c5ccc(-c6ccc7c(c6)C(=O)N(*)C7=O)cc5C4=O)cc3)c(C(C)(C)C)c2)cc1 (repeat unit)
182.00	*CCCOc1ccc(-c2ccc(O*)c3ccccc23)c2ccccc12 (repeat unit)
76.80	*Oc1ccc(SSc2ccc(*)cc2)cc1 (repeat unit)
299.00	*c1ccc2oc(-c3ccc(Oc4ccc(-c5nc6cc(C(*)(c7ccccc7)C(F)(F)F)ccc6o5)cc4)cc3)nc2c1 (repeat unit)
215.00	*Oc1ccc(Nc2ccc(C(=O)c3ccc(C(=O)c4ccc(Nc5ccc(*)cc5)cc4)cc3)cc2)cc1 (repeat unit)
165.00	*/C=C/c1ccc2c(c1)C(CC(CC)CCCC)(CC(CC)CCCC)c1cc(*)ccc1-2 (repeat unit)
180.00	*CC(*)c1ccc([Si](C)(C)OC(C)C)cc1 (repeat unit)
260.00	*Oc1ccc(C(=O)c2ccc(Oc3ccc(C4(c5ccc(*)cc5)c5ccccc5-c5ccccc54)cc3)cc2)c2ccccc12 (repeat unit)
180.00	*Oc1ccc(C(C)(C)c2ccc(Oc3ccc(*)nn3)cc2)cc1 (repeat unit)
237.00	*Oc1cccc(NC(=O)c2ccc(C(=O)c3cccc(C(=O)Nc4ccc(*)cc4)c3)cc2)c1 (repeat unit)
232.00	*CC(=O)Nc1ccc(S(=O)(=O)c2ccc(NC(=O)c3ccc4c(c3)C(=O)N(*)C4=O)cc2)cc1 (repeat unit)
267.00	*c1cccc(C(c2cccc(N3C(=O)c4ccc(-c5ccc6c(c5)C(=O)N(*)C6=O)cc4C3=O)c2)(C(F)(F)F)C(F)(F)F)c1 (repeat unit)
39.00	*CC(*)(C)C(=O)OCCCCCCOc1ccc2cc(C(=O)Oc3ccccc3)ccc2c1 (repeat unit)
267.00	*Oc1ccc(S(=O)(=O)c2ccc(Oc3ccc(S(=O)(=O)c4ccc(-c5ccc(S(=O)(=O)c6ccc(*)cc6)cc5)cc4)cc3)cc2)cc1 (repeat unit)
79.00	*Oc1ccc(C2(c3ccc(OC(*)=S)cc3)CCCC2)cc1 (repeat unit)
124.00	*CC(*)c1ccccc1C(=O)Oc1ccccc1 (repeat unit)
227.50	*c1ccc(Cc2ccc(S(*)(=O)=O)cc2)cc1 (repeat unit)
95.50	*=CNc1ccc(Cc2ccc(N=*)cc2)cc1 (repeat unit)
320.00	*c1cccc(C(=O)c2c(C)cc(C)c(N3C(=O)c4ccc(-c5ccc6c(c5)C(=O)N(*)C6=O)cc4C3=O)c2C)c1 (repeat unit)
262.00	*c1ccc(C(=O)Nc2cccc(Oc3ccc(S(=O)(=O)c4ccc(Oc5cccc(NC(=O)c6ccc(N7C(=O)c8ccc(-c9ccc%10c(c9)C(=O)N(*)C%10=O)cc8C7=O)cc6)c5)cc4)cc3)c2)cc1 (repeat unit)

Remark: another data set of the same source

SMILES	glass transition temperature [°C]
*c1ccc2c(c1)C(=O)N(c1ccc(OCC(F)(F)C(F)(F)C(F)(F)C(F)(F)C(F)(F)C(F)(F)C(F)(F)F)c(N3C(=O)c4ccc(C(*)(C(F)(F)F)C(F)(F)F)cc4C3=O)c1)C2=O (repeat unit)	226.00
*Oc1cccc(Oc2ccc(Oc3cccc4c3C(=O)N(c3ccc(Oc5cccc(Oc6ccc(N7C(=O)c8cccc(*)c8C7=O)cc6)c5)cc3)C4=O)cc2)c1 (repeat unit)	198.00
*Oc1cccc(C(C)(C)c2ccc(Oc3cccc4c3C(=O)N(c3ccc(Oc5cccc(Oc6ccc(N7C(=O)c8cccc(*)c8C7=O)cc6)c5)cc3)C4=O)cc2)c1 (repeat unit)	202.00
*c1ccc2c(c1)C(=O)N(c1ccc(Oc3c(F)c(F)c(-c4c(F)c(F)c(Oc5ccc(N6C(=O)c7ccc(C(*)(C(F)(F)F)C(F)(F)F)cc7C6=O)cc5)c(F)c4F)c(F)c3F)cc1)C2=O (repeat unit)	271.20

More lines, now with the values ahead:

glass transition temperature [°C]	SMILES
180.00	*Oc1ccc(C(c2ccc(Oc3ccc4c(c3)C(=O)N(CCCCN3C(=O)c5ccc(*)cc5C3=O)C4=O)cc2)(C(F)(F)F)C(F)(F)F)cc1 (repeat unit)
313.00 ± 2.8	*c1cccc2c1C(=O)N(c1ccc(C3(c4ccc(N5C(=O)c6cccc(*)c6C5=O)c(C)c4)c4ccccc4-c4ccccc43)cc1C)C2=O (repeat unit)
325.00	*c1ccc2c(c1)C(=O)N(c1ccc(-c3ccc(N4C(=O)c5ccc(C(*)(C(F)(F)F)C(F)(F)F)cc5C4=O)cc3C)c(C)c1)C2=O (repeat unit)
283.00	*c1ccc(Oc2ccc(C(C)(C)c3ccc(Oc4ccc(-n5c(=O)c6cc7c(=O)n(*)c(=O)c7cc6c5=O)cc4)cc3)cc2)cc1 (repeat unit)
173.00	*C1=C(Cl)C(=O)N(c2ccc(Cc3ccc(N4C(=O)C(Cl)=C(Oc5ccc(C(C)(C)c6ccc(*)cc6)cc5)C4=O)cc3)cc2)C1=O (repeat unit)
274.00	*Sc1cccc2c1C(=O)N(c1cc(Cc3ccc(N4C(=O)c5cccc(*)c5C4=O)c(C)c3)ccc1C)C2=O (repeat unit)
218.00	*Oc1ccc(Sc2ccc(Oc3ccc4c(c3)C(=O)N(c3cc(N5C(=O)c6ccc(*)cc6C5=O)cc(C(F)(F)F)c3)C4=O)cc2)cc1 (repeat unit)
